One assay relates to popliteal LN. In words: Homing of CFSE labeled adoptively transferred spleen cells with or without pertussis toxin. The assay is classed as in vivo, B6 mice. To be noted: 16 h. An excerpt:
The primary objective of the current experiment was to utilize 5 mice to perform the study described in Example 7 and to visualize the homing of CFSE labeled adoptively transferred cells. The study included a population of cells that had been treated in vitro with pertussis toxin to inactivate chemokine receptors. Pertussis toxin and untreated cells were labeled with two different concentrations of CFSE so that they could be distinguished by flow cytometry. The lymphocytes should be induced to home to lymph nodes.
Spleen cells were prepared from a single B6 mouse and divided in half. Half of the cells were treated with Pertussis toxin 100 ng/ml for 1 hour at 37° C. and washed. The two cell populations were then labeled with CFSE at two different concentrations so they could be distinguished by flow cytometry, and mixed together. The mix (10^7 cells) was injected i.v. into the tail vein of 5 B6 mice. The mice were then anesthetized and injected in the footpad with either sucrose (right footpad) or R-DOTAP (left footpad, 50 μl, 600 nmoles).
After 16 h, the mice were sacrificed and the popliteal LN and spleens harvested. The total cells recovered from left and right nodes from each mouse were counted.

The subject of assay [1] is BMDC (CD11c positive cells). In words: DQ-OVA uptake and processing by BMDC, flow cytometry. In kind it is cell-based, mouse. Here is the method: In order to determine the effects of cationic lipids on antigen uptake and processing by dendritic cells ex-vivo, a fluorescent ovalbumin protein called DQ-OVA was used. DQ-OVA is non-fluorescent when intact, but emits both red and green fluorescence when the protein is degraded. BMDC were incubated at 37° C. or 4° C. for 1 hr with DQ-OVA alone, or DQ-OVA mixed with different concentrations of the cationic lipid DOTAP. The cells were then washed, fixed, and stained with fluorescent antibodies to CD11c, a marker for dendritic cells. Cells were then analyzed on an LSRII flow cytometer in both red and green fluorescent channels.
This represents the well-known mannose receptor mediated uptake of OVA by DC. […] Graphical representation of the fluorescent uptake of DQ-OVA into BMDC measured by flow cytometry.
(§1) This uptake and processing was inhibited at 4° C. confirming that active cytoskeletal rearrangements are required for this type of uptake. […] The effect of R-DOTAP was concentration dependent with 50 uM showing the greatest effect. To determine if the R-DOTAP enhancement of protein uptake is cell dependent, a mouse epithelial cell line was incubated with DQ-OVA under identical conditions as the BMDC. […] Further, they indicate that this enhancement is selective for dendritic cells and not other, non-antigen presenting cell types.
In order to determine whether lipid adjuvants could mediate the same effect as R-DOTAP, BMDC were incubated with DQ-OVA in media alone or with R-DOTAP as described for FIG. 1. In addition, BMDC were incubated under identical conditions with the potent lipid adjuvant lipopolysaccharide (LPS). Mouse bone marrow DC were incubated in the presence of fluorescent DQ-OVA for one hour at either 37° C. or 4° C./azide in the presence of 25 μM DOTAP nanoparticles, 10 μg/ml LPS or media alone, and analyzed by flow cytometry. […] Monophorphoryl lipid-A (MPL) is a lower toxicity derivative of LPS that is now an FDA approved adjuvant in several vaccines.

The test system of assay [2] is mouse bone marrow derived dendritic cells (BMDCs). Description: Alexa Fluor 647-OVA uptake by BMDCs, flow cytometry. The assay is classed as cell-based. To be noted: 50 μM cationic lipid, 20 μg/ml Alexa Fluor 647-OVA, 37° C., 10-60 minutes, versus 280 mM sucrose diluent. As for the experimental part:
In order to determine the effect of cationic lipids on the uptake of protein antigen, mouse bone marrow derived dendritic cells (BMDCs) were pulsed with Alexa Fluor®647-OVA conjugate and quantified ovalbumin uptake by BMDCs using flow cytometry. Briefly, 2×10^6 cells/ml BMDCs were incubated at 37° C. for 10-60 minutes in serum free RPMI 1640 cell culture media containing 20 μg/ml ovalbumin (Ovalbumin Alexa Fluor® 647 conjugate; life technologies, cat #034784) and 50 μM cationic lipid (RDOTAP) or 280 mM sucrose diluent. Cells were washed after pulsing to remove non-cell associated ovalbumin and fixed with 1% formaldehyde for flow cytometer analysis. The ovalbumin uptake was quantified using BD LSR II flow cytometer.

A further assay concerns TC1 epithelial cells. In words: DQ-OVA uptake and processing by epithelial cell line. In kind it is cell-based, mouse. The settings on record: identical conditions as the BMDC. As for the experimental part:
as §1

The values below come from US11612652B2, “Lipids as synthetic vectors to enhance antigen processing and presentation ex-vivo in dendritic cell therapy” (PDS Biotechnology Corporation, priority 2015, dated 2023).

SMILES strings stand for the structures.

For `CCCCCCCC/C=C\CCCCCCCC(=O)OCC(C[N+](C)(C)C)OC(=O)CCCCCCC/C=C\CCCCCCCC` (centres unmarked) [R-DOTAP, 1,2-dioleoyl-3-trimethylammonium propane], in the assay with popliteal LN (R-DOTAP footpad 50 μl, 600 nmoles, untreated cells), the “infiltration of transferred CFSE labeled lymphocytes into lymph node” value is reported as “transferred CFSE labeled lymphocytes also infiltrated the lymph node upon R-DOTAP vaccination”. In addition, the “infiltration of pertussis toxin treated CFSE labeled cells into lymph node” value in the assay on popliteal LN (cells treated with Pertussis toxin 100 ng/ml) was “this did not occur with the pertussis treated cells”. Also, the “DQ-OVA uptake at 4° C.” value in assay [1] (4° C., 1 hr) was “Significant uptake was even seen at 4 °C”. Further, the “DQ-OVA uptake and processing, mean green fluorescence of CD11c positive cells” value in assay [1] (37° C., 1 hr, versus DQ-OVA alone) was “doubling of fluorescence”. Further, the “concentration showing the greatest effect on DQ-OVA uptake” value in assay [1] (concentration dependent effect) was 50 µM. The “enhancement of DQ-OVA uptake and processing compared with known adjuvants (red fluorescence)” value in assay [1] (one hour, 25 μM DOTAP nanoparticles, 10 μg/ml LPS or media alone) is given as “greatly enhanced”. The “ovalbumin (protein) uptake by BMDC, fluorescence intensity” value in assay [2] is “significantly increased the protein uptake by BMDC at all time points measured”. The “DQ-OVA uptake and processing in TC1 epithelial cells” value in the assay with TC1 epithelial cells is “only observed in DC and not in TC1 epithelial cells”.
